{"source": "patent US20040230033A1", "about": "“Substrate-derived affinity labels, and uses thereof” (priority 2003, published 2004)", "key": {"SrtAΔN [1]": {"target": "T1, SrtAΔN (Staphylococcus aureus, UniProt Q2FV99)", "T1 construct": "The region of the SrtA gene lacking the N-terminal membrane domain was then PCR-amplified; made in house; host or cells: E. coli HMS174(DE3)pLysS", "test": "biochemical", "assay_type": "biochemical, S. aureus", "settings": "for k1 (first-order rate constant ki for covalent modification of SrtAΔN) / ki/Ki (specificity constant): 37° C., means ± S.E.M., four determinations; for k1 (first-order rate constant ki for covalent modification of SrtAΔN): pH 7.5, inhibitor 25-200 μM; for ki/Ki (specificity constant): pH 7.5", "method": "Using methods described previously, SrtAΔN activity was measured with the internally quenched substrate 4([4-(dimethylamino)phenyl]azo)-benzoyl(Dabcyl)-[…][(2-aminoethyl)-amino]napthalenel-sulphonyl (Edans) (prepared by standard Fmoc solid-phase synthesis) on a CytoFluor 4000® multi-well fluorimeter (PerSeptive Biosystems, Foster City, Calif., U.S.A.). All SrtAAN assays were performed at 37° C. (in triplicate) in 50 mM Tris/HCI (pH 7.5) containing 150 mM NaCl, 5 mM CaCl2, 5 mM NH,-Gly3 and 5 mM dithiothreitol (SrtA buffer). Wells contained approx. 10 pM of purified SrtAoN and 50 pM of substrate, in a final volume of 200, ul. The Km and kcat values for the SrtAΔN-catalysed cleavage of the internally quenched sub-strate were calculated by fitting the data points directly into the Michaelis-Menten equation for substrate hydrolysis, using GraFit® software (Erithacus Software, Horley, Surrey, U.K.).\nData from the curves were fitted, using non-linear regression analysis, to the integrated rate equation [P]=PJ1-e “-Pp”). This equation represents a first-order rate process for the formation of product P as a function of time, where kapp is the apparent rate constant and P. represents the concentration of product at a time approaching infinity. Using five different concentrations for each inhibitor (25, 50, 100, 150 and 200/μM), the values kapp and P∞were determined and utilized to evaluate the apparent second-order rate constant A for the inactivation of SrtAΔN in the presence of the substrate. The individual kinetic constants ki and Ki were then evaluated for both inhibitors from a plot of 1/A versus inhibitor concentration [I] [28], and the specificity constant k;/K; was calculated.\nData from the progress curves for SrtΔN-catalysed hydrolysis of the internally quenched substrate Dabcyl-[…]Edans in the presence of five different concentrations of inhibitors I and II (25, 50, 100, 150 and 200, W) were fitted by non-linear regression analysis to the integrated rate equation [P]=P∞(1-e^−kaPPt). The P∞. and kapp values were determined and used to evaluate the apparent second-order rate constant A for inactivation of SrtΔN in the presence of substrate. The individual kinetic constants k and K were then evaluated from a plot of 1/A versus inhibitor concentration [I], and the specificity constant for each inhibitor (kiKi) calculated. Values represent the means ±S.E.M. for four determinations."}, "wild-type SrtA": {"target": "T2, wild-type SrtA (Staphylococcus aureus, UniProt Q2FV99)", "T2 construct": "endogenous in cells; host or cells: S. aureus Oxford strain (ATCC 9144)", "test": "Affinity labelling of wild-type SrtA in crude S. aureus cell lysates, Western blot", "assay_type": "binding", "settings": "lysate probed with III; additional 24 kDa band, confirmed with antiserum", "method": "For the disclosure of wild-type SrtA in S. aureus, a 50 ml overnight culture of the organism in LB broth was prepared. The bacterial cells were centrifuged at 3000 g for 15 min and the resulting pellet was washed in 5 ml of SrtA buffer. The washed bacteria were then resuspended in 1 ml of SrtA buffer containing 0.1 g of glass beads. The suspension was vortex-mixed continuously for 5 min followed by centrifugation at 1500 g for 15 min to remove the beads and unbroken cells. To 100 pl of purified SrtAΔN and the crude bacterial preparations, the inhibitor biotin-Ahx-Leu-Pro-Ala-Thr-CHN2 (III) was added (final concentration 50 pM) before incubation at 37° C. for 30 min.\nTo detect the affinity-labelled recombinant and wild-type SrtA, samples were analysed by Western-blot analysis. […] Bound antibody was detected with a goat anti-rabbit IgG alkaline phosphatase conjugate (1:20000).\nWestern-blotting experiments were performed with biotinAhx-Leu-Pro-Ala-Thr-CHN2 (III) to detect the presence of wildtype SrtA in crude cell lysates from S. aureus (Oxford strain; see FIG. 8B). […] In the duplicate lanes 3 and 4, which contained cell lysate “probed” with biotin-Ahx-Leu-Pro-Ala-Thr-CHN2 (III), the BCCP protein was detected along with an additional protein of apparent molecular mass 24 kDa. […]"}, "SrtB": {"target": "SrtB (Staphylococcus aureus, UniProt Q2FZE3)", "assay_type": "binding", "settings": "crude S. aureus extracts, iron not added to culture media", "experimental": "(§1) To detect the affinity-labelled recombinant and wild-type SrtA, samples were analysed by Western-blot analysis [19,24-26]. Briefly, samples were treated with denaturing treatment buffer and the proteins separated by SDS/PAGE on 4-20% (w/v) linear gradient gels, followed by semi-dry transfer to a nitrocellulose membrane (Schleicher and Schiill, Dassel, Germany). After transfer, non-specific binding sites were quenched with a 3% (w/v) solution of BSA in 20 mM Tris/HCI (pH 7.4), containing 150 mM NaCl. To detect the biotin group, the membrane was incubated with a streptavidin-alkaline phosphatase conjugate (1:500). […] Bound antibody was detected with a goat anti-rabbit IgG alkaline phosphatase conjugate (1:20000)."}, "SrtAΔN [2]": {"target": "T1, SrtAΔN", "test": "Affinity labelling of recombinant SrtAΔN, Western blot with streptavidin-alkaline phosphatase", "assay_type": "binding, S. aureus", "experimental": "as §1\nIn lane 3, the bound fraction eluted from the column with 10 mM imidazole (purified SrtAΔN) was also analysed."}, "cathepsin B [3]": {"target": "T3, cathepsin B (Homo sapiens, UniProt P07858)", "settings": "reference [30]; cited from earlier work"}, "cathepsin B [4]": {"target": "T3, cathepsin B", "settings": "cathepsin B/Cbz-Phe-Phe-CH2Cl versus SrtAΔN/II"}, "[5]": {"target": "recombinant sortase SrtAΔN (His6-tagged) (Staphylococcus aureus (Oxford strain)) (UniProt Q2FV99)"}}, "note": "pKi: −log10 of the molar value. Values joined by “and” are separate entries in the source; they are usually repeats but may differ in a detail not shown here. Identical values can stand only once. Where a SMILES comes first, the peptide text is derived from it. The star is where a group is joined. Biotin = O=C1N[C@H]2[C@H](CS[C@H]2CCCCC(=O)*)N1; Cbz = O=C(OCc1ccccc1)*; CHN2 = [N-]=[N+]=C*; Ahx = NCCCCCC(=O)O; CH2Cl = ClC*"}
{"molecule": "CC(C)C[C@H](NC(=O)OCc1ccccc1)C(=O)N1CCC[C@H]1C(=O)N[C@@H](C)C(=O)N[C@H](C(=O)C=[N+]=[N-])[C@@H](C)O", "note": "[Inhibitor I, Cbz-Leu-Pro-Ala-Thr-CHN2] (Cbz-LPAT-CHN2)", "values": [{"measurement": "pKi", "setting": "SrtAΔN [1]", "result": 6.66}, {"measurement": "k1 (first-order rate constant ki for covalent modification of SrtAΔN)", "setting": "SrtAΔN [1]", "result": "5.8×10^−3 min^−1 and 5.8 ± 0.6 × 10^−3 min^−1"}, {"measurement": "ki/Ki (specificity constant)", "setting": "SrtAΔN [1]", "result": "2.2×10^4 M^−1 − min^−1 and 2.2 ± 0.2 × 10^4 M^−1 − min^−1"}]}
{"molecule": "{Biotin-Ahx}-LPAT-CHN2 [Inhibitor III]", "values": [{"measurement": "detection of wild-type SrtA in crude S. aureus lysate", "setting": "wild-type SrtA", "result": "affinity-labelled SrtA"}, {"measurement": "selectivity of labelling, SrtA versus SrtB", "setting": "SrtB", "result": "selectively disclosed wild-type SrtA, but not SrtB"}, {"measurement": "nature of binding of biotinylated inhibitor to SrtAΔN", "setting": "SrtAΔN [2]; 50 μM, 37° C., 30 min, approx. 30 kDa band labelled in crude E. coli lysate and purified fraction", "result": "active-site-directed"}]}
{"molecule": "O=C(O)c1cc[c]([Hg][OH])cc1", "note": "[pHMB, reference compound]", "values": [{"measurement": "effect of pre-treatment on SrtAΔN labelling by III", "setting": "SrtAΔN [2]; purified SrtAΔN pre-treated with thiol-directed inhibitor before probing with III", "result": "complete diminution of SrtAΔN labelling"}]}
{"molecule": "CC(C)C[C@H](NC(=O)OCc1ccccc1)C(=O)N1CCC[C@H]1C(=O)N[C@@H](C)C(=O)N[C@H](C(=O)CCl)[C@@H](C)O", "note": "[Inhibitor II, Cbz-Leu-Pro-Ala-Thr-CH2Cl] (Cbz-LPAT-CH2Cl)", "values": [{"measurement": "pKi", "setting": "SrtAΔN [1]", "result": 6.68}, {"measurement": "k1 (first-order rate constant ki for covalent modification of SrtAΔN)", "setting": "SrtAΔN [1]", "result": "1.1×10^−2 min^−1 and 1.1 ± 0.1 × 10^−2 min^−1"}, {"measurement": "ki/Ki (specificity constant)", "setting": "SrtAΔN [1]", "result": "5.3×10^4 M^−1 − min^−1 and 5.3 ± 0.6 × 10^4 M^−1 − min^−1"}, {"measurement": "covalently modifies SrtAΔN more rapidly than peptidyl-diazomethane I (by ki)", "setting": "SrtAΔN [1]; II versus I", "result": "approx. 2 fold"}, {"measurement": "inactivates SrtAΔN more rapidly than analogous diazomethane sequence I (by specificity constants)", "setting": "SrtAΔN [1]; II versus I", "result": "approx. 2 fold"}]}
{"molecule": "Cbz-Phe-Phe-CH,Cl", "values": [{"measurement": "ki for alkylation of the active-site cysteine residue of cathepsin B", "setting": "cathepsin B [3]", "result": 12.5, "unit": "min⁻¹"}, {"measurement": "ki greater than irreversible modification of SrtAΔN by peptidyl-chloromethane II", "setting": "cathepsin B [4]", "result": "approx. 1000 fold"}]}
{"molecule": "Cbz-Leu-Pro-Ala-Thr-CH2Cl (II), peptidyl-chloromethane inhibitor (peptide)", "values": [{"measurement": "ki (first-order rate constant of inactivation)", "setting": "[5]", "result": 0.011, "unit": "min⁻¹"}, {"measurement": "ki/Ki (specificity constant)", "setting": "[5]", "result": 883, "unit": "M⁻¹ s⁻¹"}]}
{"molecule": "Cbz-Leu-Pro-Ala-Thr-CHN2 (I), peptidyl-diazomethane inhibitor (peptide)", "values": [{"measurement": "ki (first-order rate constant of inactivation)", "setting": "[5]", "result": 0.0058, "unit": "min⁻¹"}, {"measurement": "ki/Ki (specificity constant)", "setting": "[5]", "result": 367, "unit": "M⁻¹ s⁻¹"}]}
